Data from PMC10946451, “Engineering a Carboxyl Methyltransferase for the Formation of a Furan‐Based Bioplastic Precursor” (Chemsuschem, 2023).

Target: T1, FtpM (WT FtpM) (Aspergillus fumigatus, UniProt Q4WZ45)
T1 construct: gene AFUA_3G15280; codon-optimised gene in pET-based golden gate vector, C-terminal His tag, expressed in E. coli, HisTrap purified; monomer and dimer modelled by AlphaFold 2
T1 sequence (Q4WZ45 1-282): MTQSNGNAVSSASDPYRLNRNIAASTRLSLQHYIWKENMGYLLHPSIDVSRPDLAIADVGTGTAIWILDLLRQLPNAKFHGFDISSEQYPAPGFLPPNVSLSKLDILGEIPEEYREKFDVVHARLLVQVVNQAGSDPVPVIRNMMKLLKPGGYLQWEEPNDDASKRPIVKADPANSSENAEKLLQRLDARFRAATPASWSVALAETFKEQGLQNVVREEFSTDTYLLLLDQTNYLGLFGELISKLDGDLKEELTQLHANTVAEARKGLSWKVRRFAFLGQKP
Assay: steady-state kinetics of carboxyl methylation (Michaelis-Menten; previously reported method)
Assay type: biochemical
Details: co-substrate SAM, kinetic assay conditions not printed (reactions: 50 mM MES pH 6.0, 25 °C)

| SMILES | Km (first methylation) | Km (second methylation) |
| --- | --- | --- |
| O=C(O)c1ccc(C(=O)O)o1 [compound 2, 2,5-furandicarboxylic acid] | 520 µM |  |
| COC(=O)c1ccc(C(=O)O)o1 [compound 3, FMME] |  | 1400 µM |
